Results from PMC3701073, “The Mode of Inhibitor Binding to Peptidyl-tRNA Hydrolase: Binding Studies and Structure Determination of Unbound and Bound Peptidyl-tRNA Hydrolase from Acinetobacter baumannii” (PLoS ONE, 2013).

Target: T1, peptidyl-tRNA hydrolase from Acinetobacter baumannii (AbPth) (Acinetobacter baumannii, UniProt D0C9L6)
T1 construct: gene pth; full length, 193 residues (Met1-Ala193), N-terminal 6xHis tag (pET-28a, NdeI/XhoI; cleavage not mentioned), E. coli BL21(DE3)
T1 sequence (D0C9L6 1-193): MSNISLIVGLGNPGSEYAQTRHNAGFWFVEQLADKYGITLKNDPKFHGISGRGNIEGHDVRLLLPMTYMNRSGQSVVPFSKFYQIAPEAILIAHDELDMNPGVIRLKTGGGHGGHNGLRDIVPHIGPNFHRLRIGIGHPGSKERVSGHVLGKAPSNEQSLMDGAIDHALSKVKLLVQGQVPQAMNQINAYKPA
Experiment: intrinsic fluorescence quenching (Scatchard)
Type: binding

Compound | Kd [nM]
O=c1ccn([C@@H]2O[C@H](CO)[C@@H](O)[C@H]2O)c(=O)[nH]1 [uridine] | ~2.11
Nc1ccn([C@@H]2O[C@H](CO)[C@@H](O)[C@H]2O)c(=O)n1 [cytidine] | 4.79
